For eleven molecules, TGI and GI50 results are on record in PubChem BioAssay (NCI).

Common to all, as to experiment: inhibition of tumour cell growth, NCI panel, 48 h
Assay [1] has as its system SF-268 CNS.
For assay [2], the system named is K-562 leukemia.
Assay [3] deals with CCRF-CEM leukemia.
The test system of assay [4] is PC-3 prostate.
Assay [5] has as its system BT-549 breast.
Assay [6] deals with MDA-MB-231 breast.
For assay [7], the system named is NCI-H522 lung.
In assay [8] the test system is RPMI-8226 leukemia.
Assay [9] concerns SK-MEL-2 melanoma.
The test system of assay [10] is SNB-75 CNS.

Several values for one entry are separate records, joined by “and”; a condition that tells them apart may be missing. Equal entries are not always repeated.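 Results reflect a 48-hour exposure of cells in 96-well plates to compound at five concentrations. At the GI50, growth is halved. TGI: concentration producing complete growth inhibition.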

With `CC(=O)OCC1OC(n2c(S)c(C#N)c(-c3ccccc3)c(C#N)c2=O)C(OC(C)=O)C(OC(C)=O)C1OC(C)=O` (configuration not stated), the TGI in assay [1] was > 100 µM and 61.7 µM; in [2] it was greater than 100 µM; in assay [3] it was > 100 µM and 96.7 µM; in assay [4], greater than 100 µM; in [5] it was > 100 µM and 59.1 µM; in assay [6] it was > 100 µM and 83.7 µM. Besides, the TGI in [7] was > 100 µM and 51.3 µM; in assay [8], > 100 µM and 75 µM; in assay [9], > 100 µM and 31.8 µM; in [10], 56.5 µM and 72.4 µM. Moreover, the GI50 in assay [3] is > 100 µM and 43.1 µM; in assay [4] it was > 100 µM and 43.5 µM; in assay [5] it was > 66.8 µM and 21.1 µM; in assay [6], > 71.9 µM and 22.1 µM; in assay [7] it was 54.8 µM and 27 µM; in assay [8] it was > 100 µM and 35 µM. Further, the GI50 in assay [9] was > 61.6 µM and 13.6 µM.

Turning to `COC(=O)C1(SC)C2CCC3C2CCC31` (configuration not stated), the TGI in assay [1], in assay [2], in [3], in [4], in assay [5] and in assay [6] was greater than 100 µM each time. The TGI in [7], in assay [8], in assay [9] and in assay [10] was greater than 100 µM in each case.

Take `O=C(NO)NCCCl`: the TGI in assay [1], in assay [2], in [3], in assay [4], in [5] and in assay [6] was greater than 100 µM each time. Further, the TGI in [7], in [8], in assay [9] and in assay [10] was greater than 100 µM in each case.

For `COc1cc(OC)c2c(c1)OC(c1cccnc1)C(c1ccccc1)C2=O` (configuration not stated), the TGI in [1], in assay [2], in assay [3], in assay [4], in [5] and in assay [6] was greater than 100 µM each time. For the same molecule, the TGI in assay [7], in [8], in assay [9] and in assay [10] was greater than 100 µM in each case.

As to `N/C1=C/C(=O)NC(=O)c2c(c3ccccc3oc2=O)C1`, the TGI in assay [1], in assay [2], in assay [3], in assay [4], in assay [5] and in assay [6] was greater than 100 µM each time. Moreover, the TGI in assay [7], in assay [8], in assay [9] and in assay [10] was greater than 100 µM in each case.

For `CCCCCCCCCCCCCCCCNc1ccn(C2CC(O)C(COC(c3ccccc3)(c3ccccc3)c3ccc(OC)cc3)O2)c(=O)n1` (configuration not stated), the TGI in assay [1], in assay [2], in [3], in assay [4], in assay [5] and in assay [6] was greater than 100 µM throughout. The TGI in assay [7], in assay [8], in assay [9] and in assay [10] was greater than 100 µM each time.

As for `c1ccc2c(c1)cc1n2CCc2c-1[nH]c1ccccc21`, the TGI in [1], in assay [2], in assay [3], in assay [4], in [5] and in [6] was greater than 10 µM in each case. For the same molecule, the TGI in assay [7], in assay [8], in assay [9] and in [10] was greater than 10 µM throughout.

Regarding `O=C1C(c2c(O)[nH]c3ccc(Br)cc23)=Nc2ccc(Br)cc21`, the TGI in assay [1] is greater than 100 µM; in [2] it was greater than 100 µM; in assay [3] it was greater than 100 µM; in assay [4], greater than 100 µM; in [5] it was greater than 100 µM; in [6], 79.5 µM. The TGI in assay [7] was greater than 100 µM; in assay [8] it was greater than 100 µM; in assay [9], greater than 100 µM; in [10] it was 41.3 µM.

For the molecule `CCN1CCC(CNC(=O)c2ccc(N)cc2)N1CC` (configuration not stated), the TGI in assay [1], in assay [2], in assay [3], in assay [4], in assay [5] and in assay [6] was greater than 100 µM in each case. For the same molecule, the TGI in assay [7], in assay [8], in assay [9] and in [10] was greater than 100 µM throughout.

For the molecule `COC(=O)Nc1nc2ccc(S(=O)(=O)N3CCOCC3)cc2[nH]1`, the TGI in assay [1], in [2], in assay [3], in assay [4], in assay [5] and in [6] was greater than 100 µM in each case. Moreover, the TGI in [7], in assay [8], in assay [9] and in [10] was greater than 100 µM in each case.

Take `O=C(SCc1cccc2ccccc12)c1ccc(Cl)cc1`: the TGI in [1], in [2], in assay [3], in assay [4], in assay [5] and in assay [6] was greater than 100 µM throughout. The TGI in [7], in assay [8], in assay [9] and in assay [10] was greater than 100 µM each time.
